The supplement of paper PMC11061612

Assays:
[1] = tested on: HCC1954 (Breast Carcinoma); test: Bliss excess, mean over the matrix (fraction); higher = more synergy
Procedure, shortened: (§1)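 Bliss excess equals the observed combination effect minus the expected value EA + EB − EA·EB, where EA and EB are the effects of each agent alone. Combination Emax is the second-highest inhibition within the matrix. Inhibition was scaled from CellTiter-Glo 2.0 luminescence, with 0 set by vehicle wells and 1 by blank wells, after 72 hours of two-drug dosing of cells plated in 1536-well plates.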

[2] = tested on: ONS-76 (Other Solid Carcinomas); test: as above
Procedure, shortened: as §1

SMILES: CS(=O)(=O)CCNCc1ccc(-c2ccc3ncnc(Nc4ccc(OCc5cccc(F)c5)c(Cl)c4)c3c2)o1 [Lapatinib] + NC1(c2ccc(-c3nc4ccn5c(=O)[nH]nc5c4cc3-c3ccccc3)cc2)CCC1 [MK-2206] (first compound max 10 µM, 7x7, partner max 10 µM)
- Bliss excess [1]: 0.0952
- Bliss excess [2]: 0.0048
